Target: Cyclin-dependent kinase 1 (Homo sapiens, UniProt P06493)
Assay: Inhibition of CDK1

Sequence of Cyclin-dependent kinase 1 (P06493 whole entry): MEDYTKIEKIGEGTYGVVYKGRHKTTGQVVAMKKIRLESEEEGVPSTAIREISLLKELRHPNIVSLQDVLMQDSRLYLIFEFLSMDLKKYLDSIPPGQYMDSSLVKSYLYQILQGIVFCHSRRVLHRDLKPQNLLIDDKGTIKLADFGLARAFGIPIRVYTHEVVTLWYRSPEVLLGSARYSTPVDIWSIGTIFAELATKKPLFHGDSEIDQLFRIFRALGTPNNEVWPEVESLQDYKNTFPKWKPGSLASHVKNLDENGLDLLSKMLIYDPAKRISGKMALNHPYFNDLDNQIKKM

IC50	SMILES
1400 nM	OCCNC(=S)Nc1ccc(C(F)(F)F)cc1
2500 nM	OCCSC(=S)Nc1ccc(Cl)c(Cl)c1
2530 nM	O=C(NCCCO)c1cc(Cl)ccc1O
3230 nM	OCCN(CCO)Cc1cc(Cl)c2cccnc2c1O
830 nM	CCN(CCO)CCCNc1ccnc2cc(Cl)ccc12
910 nM	COC(=O)c1cc(NC(C)=O)ccc1S(=O)(=O)c1ccc(NC(C)=O)cc1C(=O)OC
2100 nM	Cc1cc2[nH]c(=S)n([C@@H]3O[C@H](CO)[C@@H](O)[C@H]3O)c2cc1C
4900 nM	O=Cc1cc(CCCCCCc2ccc(O)c(C=O)c2)ccc1O
2900 nM	C[C@H](N[C@@H](C)COc1ccccc1)[C@@H](O)c1ccc(O)cc1

SMILES	IC50
COc1cc(OC)nc(NC(=O)NS(=O)(=O)c2cc(NC=O)ccc2C(=O)N(C)C)n1 [FORAMSULFURON]	3600 nM
O=c1c(O)c(-c2ccc(O)c(O)c2)oc2cc(O)cc(O)c12 [QUERCETIN]	450 nM

— ChEMBL document CHEMBL1240477, “Discovery of novel CDK1 inhibitors by combining pharmacophore modeling, QSAR analysis and in silico screening followed by in vitro bioassay” (Eur J Med Chem, 2010)
